Patent US11607403B2, “Methods and compositions for promoting adult neurogenesis” (Morningside Ventures Limited, priority 2015, dated 2023)
“Also recorded” adds a separate entry of the source.

Assays:
mouse hippocampus [1] = experiment: Neural progenitor amplification (BrdU incorporation) after intracerebroventricular osmotic pump infusion; assay type: in vivo; details: 1 mM intracerebroventricular, 0.5 μl per hour, 7 days, compared to allopurinol or vehicle alone
Method: To assess the effects of febuxostat on neural progenitor amplification, febuxostat or allopurinol (1 mM) were intracerebroventricularly delivered via osmotic pump infusion (0.5 μl per hour) to mouse brains for 7 days. Control subjects received vehicle alone. BrdU was administered in four injections on day 6, and brain tissues were harvested on day 7. Neural progenitor amplification was measured by quantifying the number of BrdU-positive cells in the subgranular zone (SGZ) of hippocampal tissue sections.

mouse hippocampus [2] = experiment: Neuronal differentiation (DCX with BrdU) after intracerebroventricular osmotic pump infusion; assay type: in vivo; details: 1 mM intracerebroventricular 7 days, tissue harvested day 14, compared to allopurinol or vehicle alone
Method: To assess the effects of febuxostat on adult neurogenesis, febuxostat or allopurinol (1 mM) were delivered to mouse brains for 7 days as described above. BrdU was administered in eight injections over days 2-3. The osmotic pump was removed on day 7 and brain tissues were harvested on day 14. The hippocampal slices were subjected to immunohistochemical analysis for the detection of BrdU and doublecortin (DCx) (newly formed neuron marker) stained cells in the subgranular zone of the hippocampus.

[3] = tested on: hippocampus of mice subjected to chronic restraint stress; experiment: Neural progenitor amplification (BrdU-positive cells) in mice under chronic restraint stress; assay type: in vivo, mouse; details: for neuron progenitor amplification (BrdU incorporation): vs allopurinol, vehicle and unrestrained controls, n=3 mice
Method: (§1) Murine subjects underwent CRS on day zero, with febuxostat (1 mg kg^−1 d^−1) allopurinol (20 mg kg^−1 d^−1), Rhy37 (10 mg kg^−1 d^−1), or vehicle alone, administered daily intragastrically beginning on day 15. BrdU was administered on day 36, and brain tissues harvested on day 37 or 50. Control subjects remained free throughout the trial period. Neural progenitor amplification was measured by quantifying the number of BrdU-positive cells in hippocampal tissue sections. […] Results were compared using a one-way ANOVA test.

[4] = tested on: hippocampus of mice subjected to chronic restraint stress; experiment: Neuronal differentiation (DCX+/BrdU-positive cells) in mice under chronic restraint stress; assay type: in vivo, mouse
Method: as §1

[5] = CRS mice, daily intragastric from day 15, harvest day 37 or 50, compared to allopurinol or vehicle alone

Cc1nc(-c2ccc(OCC(C)C)c(C#N)c2)sc1C(=O)O [febuxostat, 2-(3-cyano-4-isobutoxyphenyl)-4-methyl-1,3-thiazole-5-carboxylic acid]
neural progenitor amplification (BrdU-positive cells in the subgranular zone) (mouse hippocampus [1]): promotes neural progenitor amplification; also recorded: increased levels
neural differentiation (BrdU and doublecortin stained cells in the subgranular zone) (mouse hippocampus [2]): neuronal differentiation; also recorded: increased levels
neuron progenitor amplification (BrdU incorporation) ([3]; 37 days of chronic restraint stress): promotes neuron progenitor amplification
neuron progenitor amplification (BrdU incorporation) ([3]; 50 days of chronic restraint stress): promotes neuron progenitor amplification
neural progenitor amplification (BrdU-positive cells) [3, 5]: increased levels
neuronal differentiation (DCX expression with BrdU incorporation) ([4]; 50 days of chronic restraint stress, vs allopurinol, vehicle and unrestrained controls): promotes neuronal differentiation
neural differentiation (DCX+/BrdU-positive cells) [4, 5]: increased levels
